Results published in patent publication US12005126B2, “Compositions for oral administration of pentosan polysulfate in form of nanoparticles with improved intestinal absorption” (NEXTRARESEARCH S.R.L., priority 2018, dated 2024).

Test: In-vivo pharmacokinetics study in rats after oral administration
Settings: 1 mL, PPS conc. 4.64 mg/mL
Method: The bioavailability of PPS from the formulations of this invention can be evaluated in rats upon oral administration by gavage of the powder dispersion in comparison to the solution of non-formulated PPS
Plasma concentration versus time curve were evaluated in an in-vivo pharmacokinetics study carried out in rats after oral administration of 1 mL of a PPS aqueous solution having a concentration 4.64 mg/mL (Form I) or 1 mL of the PPS/chitosan nanosuspension (PPS conc. 4.64 mg/mL). In the nanosuspension the ratio between the volume of solution of PPS (6.5 mg/mL) and of solution of chitosan (6.5 mg/mL) used for the production of the nanoparticles was 5:2 (v/v).

Pentosan Polysulfate sodium [PPS solution]
Area under the curve: 1306 µg·min/mL
tmax: 1 h
